{
  "source": "patent US8691789B2",
  "about": "“Probe of iodine-123 marker thymidine (FLT)analogue [123I]-IaraU” (Atomic Energy Council-Institute of Nuclear Research, priority 2012, dated 2014)",
  "format_in_all_cases": "cell-based",
  "key": {"NG4TL4-wild type cells": {"tested_on": "NG4TL4-wild type cells", "assay": "cellular uptake experiment of [^123I]-IaraU in NG4TL4-wild type cells", "protocol": "(§1) Please refer to FIG. 3 which is a schematic view of experimental results of cell absorption of [^123I]-IaraU according to the invention. As shown, the present invention utilizes the above synthesized iodine-123 marker FLT analogue for in vitro experiments which totally use cells of NG4TL4-wild type, NG4TL4-HSVtk, NG4TL4-sr39tk. They are cultivated in the DMEM (Dulbecco's Modified Eagle's Medium) medium containing 10% fetal bovine serum at 37° C. and in the environment having 5% carbon dioxide. Then they are planted in 96-well plate at the proportion of 1×10^5 cells/well for 12 hours, and then subjected to biological experiments.\n(§2) Before the cellular uptake experiment starts, 1 mCi of the above [^123I]-IaraU 8 or [^18F]-FLT (from INER) is thoroughly mixed with 50 ml of serum-free DMEM medium. The cultivated medium on the 96-well plate is drained out, and the aforementioned cultivated medium mixed with radioactive material is immediately added material with the ratio of 200 μl/well. The cells to which the cultivated medium has been added are placed back to an incubator of 5% CO2 at 37° C. […] Finally, a Gamma-Counter is used to measure the radioactivity of cytoplasm for each individual supernatant. The formula for analysis is as follows: (Radioactivity of cytoplasm/Activity as whole)×100%."}, "NG4TL4-sr39tk cells": {"tested_on": "NG4TL4-sr39tk cells", "assay": "cellular uptake experiment of [^123I]-IaraU in NG4TL4-sr39tk cells", "protocol": "as §1, §2"}, "NG4TL4-HSVtk cells": {"tested_on": "NG4TL4-HSVtk cells", "assay": "cellular uptake experiment of [^123I]-IaraU in NG4TL4-HSVtk cells", "protocol": "as §1, §2"}, "[1]": {"settings": "after five hours, % of the total amount"}, "[2]": {"settings": "time points 0.25, 0.5, 1.5, 3 and 5 hours"}},
  "note": "Entries after “also recorded” stand apart in the source; their conditions may differ.",
  "data": [
    {"smiles": "O=c1[nH]c(=O)n([C@@H]2O[C@H](CO)C(O)C2O)cc1[123I]", "note": "(stereo partly drawn) [[^123I]-IaraU, 1-(β-D-arabinofuranosyl)-5-[^123I]iodopyrimidin-2,4(3H)-dione]", "values": [
      {"measurement": "maximum intake (radioactivity of cytoplasm/activity as whole ×100%)", "setting": "NG4TL4-wild type cells; [1]", "value": "not more than 10%"},
      {"measurement": "cellular uptake over time (in words)", "setting": "NG4TL4-wild type cells; [2]", "value": "no significant intake; also recorded: no significant increase in quantity"},
      {"measurement": "maximum intake (radioactivity of cytoplasm/activity as whole ×100%)", "setting": "NG4TL4-sr39tk cells; [1]", "value": "not more than 10%"},
      {"measurement": "cellular uptake over time (in words)", "setting": "NG4TL4-sr39tk cells; [2]", "value": "no significant intake; also recorded: no significant increase in quantity"},
      {"measurement": "maximum intake (radioactivity of cytoplasm/activity as whole ×100%)", "setting": "NG4TL4-HSVtk cells; [1]", "value": "not more than 10%"},
      {"measurement": "cellular uptake over time (in words)", "setting": "NG4TL4-HSVtk cells; [2]", "value": "no significant intake; also recorded: no significant increase in quantity"}
    ]}
  ]
}
